From ChEMBL document CHEMBL3112396, “Synthesis of aminoalkyl-substituted coumarin derivatives as acetylcholinesterase inhibitors” (Bioorg Med Chem, 2014)
Activity calls are given as the source filed them. The calls are words filed in the database; no cut-off is given here.

What was measured:
[1] = target: T1, Acetylcholinesterase (Mus musculus, UniProt P21836); experiment: Inhibition of ICR mouse brain AChE using acetylthiocholine iodide as substrate incubated 10 mins prior to substrate addition measured after 10 mins by Ellman's method
T1 sequence (P21836 whole entry): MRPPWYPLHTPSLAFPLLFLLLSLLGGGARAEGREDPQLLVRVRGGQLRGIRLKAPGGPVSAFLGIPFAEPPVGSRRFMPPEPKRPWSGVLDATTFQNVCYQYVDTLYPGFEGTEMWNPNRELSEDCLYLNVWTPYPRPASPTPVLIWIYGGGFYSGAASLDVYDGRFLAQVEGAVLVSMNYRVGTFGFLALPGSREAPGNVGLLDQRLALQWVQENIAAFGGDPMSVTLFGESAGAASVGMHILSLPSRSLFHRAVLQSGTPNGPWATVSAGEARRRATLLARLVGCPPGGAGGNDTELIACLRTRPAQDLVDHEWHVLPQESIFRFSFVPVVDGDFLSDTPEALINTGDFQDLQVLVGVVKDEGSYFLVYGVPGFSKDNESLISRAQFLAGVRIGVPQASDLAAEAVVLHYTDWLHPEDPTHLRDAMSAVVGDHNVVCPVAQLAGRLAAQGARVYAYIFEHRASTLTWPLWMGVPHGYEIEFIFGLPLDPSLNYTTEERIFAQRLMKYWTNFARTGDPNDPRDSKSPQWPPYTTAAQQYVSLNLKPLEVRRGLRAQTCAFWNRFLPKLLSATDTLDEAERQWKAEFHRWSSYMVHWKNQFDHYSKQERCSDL

[2] = tested on: Mus musculus; experiment: Memory enhancing effect in ICR mouse assessed as reversal of scopolamine-induced amnesia by measuring step-through latencies at 0.25 to 5 mg/kg, po administered 1 hr prior to acquisition trial measured after 24 hrs by passive avoidance test; type: functional, organism-based
[3] = tested on: Mus musculus; experiment: Memory enhancing effect in ICR mouse assessed as reversal of scopolamine-induced amnesia by measuring step-through latencies at 1 mg/kg, po administered 1 hr prior to acquisition trial measured after 24 hrs by passive avoidance test relative to control; type: functional, organism-based; design: dose 1 mg/kg
[4] = tested on: Mus musculus; experiment: Memory enhancing effect in ICR mouse assessed as reversal of scopolamine-induced amnesia by measuring step-through latencies at 0.5 to 5 mg/kg, po after 1 hr by passive avoidance test; type: functional, organism-based
[5] = tested on: Mus musculus; experiment: Memory enhancing effect in ICR mouse assessed as reversal of scopolamine-induced amnesia by measuring step-through latencies at 2 mg/kg, po administered 1 hr prior to acquisition trial measured after 24 hrs by passive avoidance test relative to control; type: functional, organism-based; design: dose 2 mg/kg

| Structure (SMILES) | IC50 [1] [µM] | also measured |
| --- | --- | --- |
| CCN(CC)CCOc1cc2ccc(=O)oc2cc1O | 18.7 |  |
| COc1cc2ccc(=O)oc2cc1O [SCOPOLETIN] | 476 |  |
| O=c1ccc2cc(OCCCN3CCCCC3)c(O)cc2o1 | 19.1 |  |
| O=c1ccc2cc(OCCN3CCCCC3)c(O)cc2o1 | 12.2 |  |
| O=c1ccc2cc(OCCCN3CCCC3)c(O)cc2o1 | 2.87 | Activity [2]: Active; Activity [3]: Active; Activity [4]: inactive |
| CC(C)NCCCOc1cc2ccc(=O)oc2cc1O | 27 |  |
| O=c1ccc2cc(OCCN3CCCC3)c(O)cc2o1 | 6.85 | Activity [5]: Active; Activity [2]: Active; Activity [4]: inactive |
| COc1ccc2c3c1O[C@H]1C[C@@H](O)C=C[C@@]31CCN(C)C2 |  | Activity [3]: Active |
| CCN(CC)CCCOc1cc2ccc(=O)oc2cc1O | 30.5 |  |
